# Assay results from ChEMBL document CHEMBL4346757, “Synthesis and biological evaluation of 7-methoxy-1-(3,4,5-trimethoxyphenyl)-4,5-dihydro-2H-benzo[e]indazoles as new colchicine site inhibitors” (Bioorg Med Chem Lett, 2019).
# Columns and labels:
# Type in all cases: functional
# [1] = test system: SK-MEL-5; test: Growth inhibition of human SK-MEL-5 cells assessed as cell growth at 0.01 uM after 48 hrs by SRB assay relative to control; conditions: SK-MEL-5, 48 h, read-out: Activity
# [2] = test system: IGROV-1; test: Growth inhibition of human IGROV1 cells assessed as cell growth at 0.01 uM after 48 hrs by SRB assay relative to control; conditions: IGROV-1, 48 h, read-out: Activity
# [3] = test system: RXF 393; test: Growth inhibition of human RXF393 cells assessed as cell growth at 0.01 uM after 48 hrs by SRB assay relative to control; conditions: RXF 393, 48 h, read-out: Activity
# [4] = test system: DU-145; test: Growth inhibition of human DU145 cells assessed as cell growth at 0.01 uM after 48 hrs by SRB assay relative to control; conditions: DU-145, 48 h, read-out: Activity
# [5] = test system: Hs-578T; test: Growth inhibition of human Hs 578T cells assessed as cell growth at 0.01 uM after 48 hrs by SRB assay relative to control; conditions: read-out: Activity
# [6] = test system: HCT-15; test: Growth inhibition of human HCT15 cells assessed as cell growth at 0.1 uM after 48 hrs by SRB assay relative to control; conditions: HCT-15, 48 h, read-out: Activity
# [7] = test system: SF-268; test: Growth inhibition of human SF268 cells assessed as cell growth at 0.1 uM after 48 hrs by SRB assay relative to control; conditions: SF-268, 48 h, read-out: Activity
# [8] = test system: SK-MEL-5; test: Growth inhibition of human SK-MEL-5 cells assessed as cell growth at 0.1 uM after 48 hrs by SRB assay relative to control; conditions: SK-MEL-5, 48 h, read-out: Activity
# [9] = test system: MDA-MB-468; test: Growth inhibition of human MDA-MB-468 cells assessed as cell growth at 0.1 uM after 48 hrs by SRB assay relative to control; conditions: MDA-MB-468, 48 h, read-out: Activity
# [10] = test system: RPMI-8226; test: Growth inhibition of human RPMI8226 cells assessed as cell growth at 1 uM after 48 hrs by SRB assay relative to control; conditions: RPMI-8226, 48 h, read-out: Activity
# [11] = test system: SR; test: Growth inhibition of human SR cells assessed as cell growth at 1 uM after 48 hrs by SRB assay relative to control; conditions: read-out: Activity
# [12] = test system: A549; test: Growth inhibition of human A549/ATCC cells assessed as cell growth at 1 uM after 48 hrs by SRB assay relative to control; conditions: A549, 48 h, read-out: Activity
# [13] = test system: SF-295; test: Growth inhibition of human SF295 cells assessed as cell growth at 1 uM after 48 hrs by SRB assay relative to control; conditions: SF-295, 48 h, read-out: Activity
# [14] = test system: MDA-MB-435; test: Growth inhibition of human MDA-MB-435 cells assessed as cell growth at 1 uM after 48 hrs by SRB assay relative to control; conditions: MDA-MB-435, 48 h, read-out: Activity
# [15] = test system: SK-OV-3; test: Growth inhibition of human SKOV3 cells assessed as cell growth at 1 uM after 48 hrs by SRB assay relative to control; conditions: SK-OV-3, 48 h, read-out: Activity
# [16] = test system: K562; test: Growth inhibition of human K562 cells assessed as cell growth at 10 uM after 48 hrs by SRB assay relative to control; conditions: K562, 48 h, read-out: Activity
# [17] = test system: NCI-H23; test: Growth inhibition of human NCI-H23 cells assessed as cell growth at 10 uM after 48 hrs by SRB assay relative to control; conditions: NCI-H23, 48 h, read-out: Activity
# [18] = test system: IGROV-1; test: Growth inhibition of human IGROV1 cells assessed as cell growth at 10 uM after 48 hrs by SRB assay relative to control; conditions: IGROV-1, 48 h, read-out: Activity
# [19] = test system: OVCAR-3; test: Growth inhibition of human OVCAR3 cells assessed as cell growth at 10 uM after 48 hrs by SRB assay relative to control; conditions: OVCAR-3, 48 h, read-out: Activity
# [20] = test system: NCI/ADR-RES; test: Growth inhibition of human NCI-ADR-RES cells assessed as cell growth at 10 uM after 48 hrs by SRB assay relative to control; conditions: read-out: Activity
# [21] = test system: CAKI-1; test: Growth inhibition of human Caki1 cells assessed as cell growth at 10 uM after 48 hrs by SRB assay relative to control; conditions: CAKI-1, 48 h, read-out: Activity
# [22] = test system: PC-3; test: Growth inhibition of human PC3 cells assessed as cell growth at 10 uM after 48 hrs by SRB assay relative to control; conditions: PC-3, 48 h, read-out: Activity
# [23] = test system: MCF7; test: Growth inhibition of human MCF7 cells assessed as cell growth at 10 uM after 48 hrs by SRB assay relative to control; conditions: MCF7, 48 h, read-out: Activity
# [24] = test system: OVCAR-5; test: Growth inhibition of human OVCAR5 cells assessed as cell growth at 100 uM after 48 hrs by SRB assay relative to control; conditions: OVCAR-5, 48 h, read-out: Activity
# [25] = test system: SF-539; test: Cytotoxicity against human SF539 cells assessed as growth inhibition after 48 hrs by SRB assay; conditions: SF-539, 48 h
# [26] = test system: SNB-75; test: Cytotoxicity against human SNB75 cells assessed as growth inhibition after 48 hrs by SRB assay; conditions: SNB-75, 48 h
# [27] = test system: SK-MEL-28; test: Cytotoxicity against human SK-MEL-28 cells assessed as growth inhibition after 48 hrs by SRB assay; conditions: SK-MEL-28, 48 h
# [28] = test system: SK-MEL-5; test: Cytotoxicity against human SK-MEL-5 cells assessed as growth inhibition after 48 hrs by SRB assay; conditions: SK-MEL-5, 48 h
# [29] = test system: CAKI-1; test: Cytotoxicity against human Caki1 cells assessed as growth inhibition after 48 hrs by SRB assay; conditions: CAKI-1, 48 h
# [30] = test system: T47D; test: Cytotoxicity against human T47D cells assessed as growth inhibition after 48 hrs by SRB assay
# [31] = read-out: LC50 (the source's name)
# [32] = read-out: pLC50 (the source's name) (converted)
smiles,measurement,setting,value
COc1ccc2c(c1)CCc1n[nH]c(-c3cc(OC)c(OC)c(OC)c3)c1-2,growth at 0.01 µM,[1],-6%
same,growth at 0.01 µM,[2],39%
same,growth at 0.01 µM,[3],-8%
same,growth at 0.01 µM,[4],13%
same,growth at 0.01 µM,[5],14%
same,growth at 0.1 µM,[6],4%
same,growth at 0.1 µM,[7],30%
same,growth at 0.1 µM,[8],-26%
same,growth at 0.1 µM,[9],-2%
same,growth at 1 µM,[10],52%
same,growth at 1 µM,[11],16%
same,growth at 1 µM,[12],11%
same,growth at 1 µM,[13],5%
same,growth at 1 µM,[14],-35%
same,growth at 1 µM,[15],-5%
same,growth at 10 µM,[16],17%
same,growth at 10 µM,[17],-6%
same,growth at 10 µM,[18],20%
same,growth at 10 µM,[19],12%
same,growth at 10 µM,[20],-11%
same,growth at 10 µM,[21],13%
same,growth at 10 µM,[22],14%
same,growth at 10 µM,[23],5%
same,growth at 100 µM,[24],-22%
same,GI50,[25]; read-out: GI50,< 10 nM
same,CC50,[25]; [31],29.9 µM
same,TGI,[25]; read-out: TGI,< 10 nM
same,GI50,[25]; read-out: pGI50 (converted),< 10 nM
same,CC50,[25]; [32],30.2 µM
same,TGI,[25]; read-out: pTGI,< 10 nM
same,GI50,[26]; read-out: GI50,< 10 nM
same,CC50,[26]; [31],> 100 µM
same,TGI,[26]; read-out: TGI,26.1 µM
same,GI50,[26]; read-out: pGI50 (converted),< 10 nM
same,CC50,[26]; [32],> 100 µM
same,TGI,[26]; read-out: pTGI (converted),26.3 µM
same,GI50,[27]; read-out: GI50,1620 nM
same,LC50 (concentration killing 50% of cells),[27]; read-out: LC50,68.8 µM
same,TGI,[27]; read-out: TGI,21.7 µM
same,GI50,[27]; read-out: pGI50 (converted),1620 nM
same,LC50 (concentration killing 50% of cells),[27]; read-out: pLC50 (converted),69.2 µM
same,TGI,[27]; read-out: pTGI (converted),21.9 µM
same,GI50,[28]; read-out: GI50,< 10 nM
same,CC50,[28]; [31],24.2 µM
same,TGI,[28]; read-out: TGI,< 10 nM
same,GI50,[28]; read-out: pGI50 (converted),< 10 nM
same,CC50,[28]; [32],24 µM
same,TGI,[28]; read-out: pTGI,< 10 nM
same,GI50,[29]; read-out: GI50,< 10 nM
same,LC50 (concentration killing 50% of cells),[29]; read-out: LC50,> 100 µM
same,TGI,[29]; read-out: TGI,24.8 µM
same,GI50,[29]; read-out: pGI50 (converted),< 10 nM
same,LC50 (concentration killing 50% of cells),[29]; read-out: pLC50 (converted),> 100 µM
same,TGI,[29]; read-out: pTGI (converted),24.5 µM
same,GI50,[30]; read-out: GI50,3.59 µM
same,LC50,[30]; read-out: LC50,62.5 µM
same,TGI,[30]; read-out: TGI,21.3 µM
same,GI50,[30]; read-out: pGI50 (converted),3.63 µM
same,LC50,[30]; read-out: pLC50 (converted),63.1 µM
same,TGI,[30]; read-out: pTGI (converted),21.4 µM
